Legend:
[1] = test system: actively sensitized guinea pigs; assay: Antigen induced airway hypersensitivity, airway reactivity to acetylcholine (PC100ACh); assay type: in vivo, guinea pig; settings: orally 10 mg/kg 16 hours and 2 hours before the OVA challenge; 22 to 26 hours after challenge
Text: Bronchial asthma is a disease characterized by bronchial contraction, airway hypersensitivity and infiltration of inflammatory cells into the airway. Airway hypersensitivity is a condition in which the airway sensitively produces a contraction response to various slight stimuli. Particularly, airway hypersensitivity is considered to be a common feature among patients suffering from allergic bronchial asthma. This experimental system in which actively sensitized guinea pigs are used is useful as a airway hypersensitivity model. […]
The specific airway resistance (sRaw) of wake guinea pigs was measured by the double flow plethysmography with the use of airway resistance measuring equipment (“Pulmos-1”, M.I.P.S., Japan).
[…], from twenty-two to twenty-six hours after the antigen challenge, the guinea pigs were placed in an animal chamber and allowed to inhale a physiological saline and acetylcholine (hereinafter referred to as “ACh”) solutions of 0.0625, 0.125, 0.25, 0.5, 1 and 2 mg/mL , respectively, in the order named, each for one minute until sRaw came to the value at least twice the baseline sRaw (sRaw after the inhalation of the physiological saline). The ACh concentration (hereinafter referred to as “PC100ACh”) necessary for 100% increase in the baseline sRaw was calculated from the concentration of ACh and sRaw-resistance curve. […]

[2] = test system: pig tracheal smooth muscles; assay: Dilating action on contraction of tracheal smooth muscles (high K+ contraction, Magnus tube); settings: Sus scrofa, 2 h; K+ contraction (72.7 mM); test substance final concentration 10 μM; two hours after addition; tension before addition = 100%; read-out: Relative Contraction Force (%)
Text: With the use of pig tracheal muscles, the action of the compounds of the present invention on contraction of tracheal muscles has been investigated. The method refers to “Smooth Muscle Manual” (published by Bun'eido Publishing Co.), pp. 125-137. The trachea cartilage mucous membrane and submucous tissue of a pig trachea were removed to prepare a specimen of tracheal smooth muscles having a major diameter of about 10 mm and a minor diameter of about 1.5 mm. This specimen was suspended in a Magnus tube which was aerated with a mixed gas of 95% of oxygen and 5% of carbon dioxide and contained nutrient solution at 37° C. and a load of 0.8 g was applied to this specimen, and after the tension of the specimen was stabilized, the nutrient solution was replaced with a high concentration K^+ solution (72.7 mM) to provoke K^+ contraction. The procedure of replacing the solution in the Magnus tube with the nutrient solution to wash the solution and provoking K^+ contraction with the high concentration K^+ solution was repeated again until the contraction force became constant. When the tension of the K^+ contraction became constant, each of the compounds described in Table 19 (the structural formula of the Comparative Example being described in the right side of the compound of the above described Example 180) was added to the high concentration K^+ solution as the test substance to measure the change in tension. The test substance was dissolved in dimethyl sulfoxide at a predetermined concentration and added to the high concentration K^+ solution in such a manner that the final concentration came to 10 μM. The trachea cartilage mucous membrane and submucous tissue of a pig trachea were removed to prepare a specimen of tracheal smooth muscles having a major diameter of about 10 mm and a minor diameter of about 1.5 mm. This specimen was suspended in a Magnus tube which was aerated with a mixed gas of 95% of oxygen and 5% of carbon dioxide and contained nutrient solution at 37° C. and a load of 0.8 g was applied to this specimen, and after the tension of the specimen was stabilized, the nutrient solution was replaced with a high concentration K+ solution (72.7 mM) to provoke K+ contraction. The procedure of replacing the solution in the Magnus tube with the nutrient solution to wash the solution and provoking K+ contraction with the high concentration K+ solution was repeated again until the contraction force became constant. When the tension of the K+ contraction became constant, each of the compounds described in Table 19 (the structural formula of the Comparative Example being described in the right side of the compound of the above described Example 180) was added to the high concentration K+ solution as the test substance to measure the change in tension. The test substance was dissolved in dimethyl sulfoxide at a predetermined concentration and added to the high concentration K+ solution in such a manner that the final concentration came to […]. Further, the final concentration of dimethyl sulfoxide added was made 0.3% or less. The change in tension was led to a strain pressure amplifier (“AP-621G3”, manufactured by Nippon Koden Kogyo) through a FD pickup transducer (“TB-611T”, manufactured by Nippon Koden Kogyo) and recorded on a recorder (“R-64V”, manufactured by Rika Electric). When the tension before replacement with the high concentration K+ solution was regarded as 0% and the last tension which was generated by the high concentration K+ solution before the addition of a test substance was regarded as 100%, the contraction force of the tracheal smooth muscle two hours after addition of a test substance was shown as relative percentage. […]

[3] = test system: actively sensitized guinea pigs; assay: Inhibition of immediate (IAR) and late (LAR) asthmatic response, specific airway resistance (sRaw); assay type: in vivo, guinea pig; settings: orally 10 mg/kg one hour before OVA challenge
Method: It is reported [Pepys, J. and Hutchcroft, B. J., Bronchial provocation tests in etiologic diagnosis and Analysis of asthma, Am. Rev. Respir. Dis., 112, 829-859 (1975)] that when asthmatic patients are allowed to inhale an antigen, immediate asthmatic response (hereinafter referred to as “IAR”) whose peak is 15 to 30 minutes after inhalation is provoked and recovery from this response is within two hours; however, in 60% of the asthmatic patients late asthmatic response (hereinafter referred to as “LAR”) appears 4 to 12 hours after the inhalation of the antigen. […] On the other hand, it is known that when the guinea pigs actively sensitized with an antigen are allowed to inhale the antigen again, biphasic airway responses are caused. Accordingly, as the animal model line of IAR and LAR which are recognized in the above described asthmatic patients, the asthmatic model using guinea pigs is widely used in the evaluation of drugs for asthma and the like. […]
The specific airway resistance (hereinafter referred to as “sRaw”) was measured, 1 minute, 10 minutes and 30 minutes after challenge and furthermore, 1 hour, 2 hours, 3 hours, 4 hours, 5 hours, 6 hours, 7 hours, 8 hours and 24 hours, each time for the duration of 1 minute with the use of airway resistance measuring equipment (“Pulmos-1”, M.I.P.S., Japan). […]

[4] = test system: actively sensitized guinea pigs; assay: Number of inflammatory cells in bronchoalveolar lavage fluid after antigen challenge; assay type: in vivo, guinea pig; settings: orally 10 mg/kg one hour before OVA challenge
Method: It is reported [Pepys, J. and Hutchcroft, B. J., Bronchial provocation tests in etiologic diagnosis and Analysis of asthma, Am. Rev. Respir. Dis., 112, 829-859 (1975)] that when asthmatic patients are allowed to inhale an antigen, immediate asthmatic response (hereinafter referred to as “IAR”) whose peak is 15 to 30 minutes after inhalation is provoked and recovery from this response is within two hours; however, in 60% of the asthmatic patients late asthmatic response (hereinafter referred to as “LAR”) appears 4 to 12 hours after the inhalation of the antigen. […] On the other hand, it is known that when the guinea pigs actively sensitized with an antigen are allowed to inhale the antigen again, biphasic airway responses are caused. Accordingly, as the animal model line of IAR and LAR which are recognized in the above described asthmatic patients, the asthmatic model using guinea pigs is widely used in the evaluation of drugs for asthma and the like. Furthermore, it is known that in the IAR and LAR model of guinea pigs, when actively sensitized guinea pigs are exposed to an antigen, infiltration of inflammatory cells into the airway occurs together with the biphasic airway contraction to cause various inflammatory disorders to airway tissues thereby. Therefore, the number of inflammatory cells in the bronchoalveolar lavage fluid is widely used as the index for the infiltration of inflammatory cells into the airway. Each of the above described actions in the IAR and LAR model of guinea pigs was examined with the compounds of the present invention.
Guinea pigs were allowed to inhale a 1% ovalbumin (“OVA”, sigma-Aldrich Co., U.S.A.) physiological saline for 10 minutes daily continuously for 8 days using of an ultrasonic nebulizer (“NE-U12”, Omron, Japan).
One week after the final sensitization, the guinea pigs were allowed to inhale a 2% “OVA” physiological saline for 5 minutes using of the nebulizer. Twenty-four hours and one hour before challenge, the guinea pigs were dosed with metyrapone (10 mg/kg, Sigma-Aldrich Co., U.S.A.) intravenously, and dosed with pyrilamine (10 mg/kg, Sigma-Aldrich Co., U.S.A.) intraperitoneally 30 minutes before challenge.
Each of the test substances (Compounds of Examples 1 and 4) was formed into a suspension with a 0.5% carboxymethyl cellulose sodium salt (hereinafter referred to as “CMC-Na”) solution at a concentration of 2 mg/mL. One hour before challenge, the guinea pigs were orally dosed with the suspension of the test substance with such a dose so as to be 10 mg/kg. For the control group the medium (a 0.5% CMC-Na solution) was used.
Twenty-three to twenty-four hours after the antigen challenge, the abdominal aorta of the guinea pigs was cut under intraperitoneal anesthesia with “Nembutal” (50 mg/kg) to remove blood and the chest was opened. A tube was inserted in the bronchus and fixed thereto and through this tube, 5 mL (37° C.) of a physiological saline was injected and sucked therethrough; this procedure was repeated twice (10 mL in total) and the recovered fluid was regarded as the bronchoalveolar lavage fluid (hereinafter referred to as “BALF”). BALF was centrifuged at 1,100 rmp at 4° C. for 10 minutes to obtain a precipitate (a pellet). This pellet was suspended in 1 mL of a physiological saline and a Turkliquid was added thereto and the number of leukocytes per μL was counted with a leukocyte counter plate. Centrifugation was repeated under the above described conditions and rabbit serum was added to the obtained pellet to prepare a smear preparation. After drying, the preparation was subjected to the May Grunwald-Giemsa stain. The number of leukocytes was counted by a microscope and the ratio to the total number of cells of neutrophils, eosinophils, macrophages and lymphocytes was obtained and the number of cells per μL was calculated on the basis of this ratio.
The obtained test results were shown by mean values and standard deviations and the student's t-test was carried out. […]

Sprague-Dawley line rats = assay: Toxicity study of two-week repeated-dose oral administration with rats; assay type: in vivo; settings: male, oral, 0, 125 and 500 mg/kg/day repeatedly for two weeks
Method: In order to study the toxicity by repeated-dose administration of compounds, the compounds were dosed orally to Sprague-Dawley line rats (three male rats per group) with 0, 125 and 500 mg/kg/day (a 0.5 w/v % CMC-Na solution) repeatedly for two weeks.

[5] = 24 hours after antigen challenge, average

| SMILES | PC100ACh [1] | activity at 10 µM [2] | IAR (% change in sRaw) inhibited by, compared to the control group [3] | LAR (AUC) inhibited by, compared to the control group ([3]; AUC from 4 hours to 8 hours) | change in number of eosinophils compared to the control group [4] | change in number of lymphocytes compared to the control group [4] | change in number of neutrophils compared to the control group [4] | change in total number of cells compared to the control group [4] | number of cells of eosinophils in bronchoalveolar lavage fluid [4, 5] | number of cells of lymphocytes in bronchoalveolar lavage fluid [4, 5] | number of cells of macrophages in bronchoalveolar lavage fluid [4, 5] | number of cells of neutrophils in bronchoalveolar lavage fluid [4, 5] | total number of cells in bronchoalveolar lavage fluid [4, 5] | Results (toxicity findings) (Sprague-Dawley line rats) |
| --- | --- | --- | --- | --- | --- | --- | --- | --- | --- | --- | --- | --- | --- | --- |
| C[C@@H]1C[C@H]2[C@@H]3CCC4=CC(=O)C=C[C@]4(C)[C@@]3(F)[C@@H](O)C[C@]2(C)[C@@]1(O)C(=O)CO [dexamethasone, Dexamethasone] | 1.14 mg/mL |  |  |  |  |  |  |  |  |  |  |  |  |  |
| CSc1ccc2c(c1)CC(=O)c1c(O)cc(O)cc1S2 [Example 1, 2-Methylthio-7,9-dihydroxy-10,11-dihydrodibenzo[b,f]thiepin-10-one] |  | 0% | 70% | 77% | tendency | tendency | tendency | significant decrease | 810 µL⁻¹ | 21 µL⁻¹ | 1,872 /μL | 1,072 /μL | 3,775 /μL | No abnormalities were recognized |

Source: patent US6700013B2, “Tricyclic fused heterocycle compounds, process for preparing the same and use thereof” (Nippon Suisan Kaisha, Ltd., priority 1999, dated 2004)
